From US8378104B2 (OSI Pharmaceuticals, LLC, priority 2010, dated 2013) come the findings set out here.

pIC50: −log10 of the molar value. Where a name gives a salt, the structure may show the parent alone.

One assay has as its target T1, TAK1-TAB1 fusion protein (Homo sapiens, UniProt O43318).
T1 construct: purchased Carna
T1 sequence (O43318 with tags, fused parts or gaps limits assumed): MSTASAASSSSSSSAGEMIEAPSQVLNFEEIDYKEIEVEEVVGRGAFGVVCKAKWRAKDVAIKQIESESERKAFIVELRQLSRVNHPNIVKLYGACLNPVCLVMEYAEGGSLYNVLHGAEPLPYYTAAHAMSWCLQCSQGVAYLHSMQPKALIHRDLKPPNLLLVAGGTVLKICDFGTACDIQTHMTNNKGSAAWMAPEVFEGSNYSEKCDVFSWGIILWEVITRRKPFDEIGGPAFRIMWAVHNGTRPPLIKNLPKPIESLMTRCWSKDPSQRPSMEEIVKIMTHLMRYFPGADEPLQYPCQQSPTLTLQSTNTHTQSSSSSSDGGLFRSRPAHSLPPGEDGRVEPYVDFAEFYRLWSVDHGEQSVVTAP
The experiment in a line: TAK1 biochemical assay (AlphaScreen, GST-MAP2K7 substrate).
Settings: not given
Turning to `CC(=O)N1CCC(n2cc(-c3cnc(N)c4oc(C5=CCNCC5)cc34)cn2)CC1` [Example 95, 1-(4-{4-[7-amino-2-(1,2,3,6-tetrahydropyridin-4-yl)furo[2,3-c]pyridin-4-yl]-1H-pyrazol-1-yl}piperidin-1-yl)ethanone hydrochloride], the pIC50 is 6.00 to 7.00.

Still in this assay, the particulars now being: TAK1-TAB1 fusion protein, GST-MAP2K7 substrate; read-out: mean TAK1 IC50 (Col. A).
For the molecule `CCNc1ncc(-c2cnn(C3CCN(C(C)=O)CC3)c2)c2cc(-c3csc4cnccc34)oc12` [Example 277, 1-(4-{4-[7-(ethylamino)-2-(thieno[2,3-c]pyridin-3-yl)furo[2,3-c]pyridin-4-yl]-1H-pyrazol-1-yl}piperidin-1-yl)ethanone trifluoroacetic acid salt], the pIC50 was 5.00 to 6.00. For `COc1ccc(COc2cccc(-c3cc4c(-c5cnn(C6CCN(C(C)=O)CC6)c5)cnc(N)c4o3)c2)cc1` [Example 182, 1-{4-[4-(7-amino-2-{3-[(4-methoxybenzyl)oxy]phenyl}furo[2,3-c]pyridin-4-yl)-1H-pyrazol-1-yl]piperidin-1-yl}ethanone], the pIC50 was 5.00 to 6.00. In the case of `Cn1cc(-c2cnc(N)c3oc(-c4csc5cnccc45)cc23)c(C#N)n1` [Example 345, 4-(7-amino-2-thieno[2,3-c]pyridin-3-yl-furo[2,3-c]pyridin-4-yl)-1-methyl-1H-pyrazole-3-carbonitrile], the pIC50 was less than 5.00. Still for that read-out and setting: the same measure for `N#Cc1sccc1-c1cnc(N)c2oc(-c3csc4cnccc34)cc12` [Example 384]: less than 5.00; for `CC(=O)N1CCC(n2cc(-c3cnc(N)c4oc(-c5ccc(OC(F)(F)F)cc5)cc34)cn2)CC1` [Example 173, 1-[4-(4-{7-amino-2-[4-(trifluoromethoxy)phenyl]furo[2,3-c]pyridin-4-yl}-1H-pyrazol-1-yl)piperidin-1-yl]ethanone]: less than 5.00. On the same count and under the same terms, the same measure for `Nc1cncc(-c2cc3c(-c4cnn(C5CCNCC5)c4)cnc(N)c3o2)c1` [Example 31, 2-(5-aminopyridin-3-yl)-4-[1-(piperidin-4-yl)-1H-pyrazol-4-yl]furo[2,3-c]pyridine-7-amine]: 6.00 to 7.00; for `Nc1ncc(-c2cnn([C@H]3CC[C@H](O)CC3)c2)c2cc(-c3ccc4c(c3)CNC4=O)oc12` [Example 404, 5-{7-amino-4-[1-(trans-4-hydroxycyclohexyl)-1H-pyrazol-4-yl]furo[2,3-c]pyridin-2-yl}-2,3-dihydro-1H-isoindol-1-one]: 5.00 to 6.00; for `CC(=O)N1CCC(n2cc(-c3cnc(N)c4oc(-c5cccc6c5cnn6C)cc34)cn2)CC1` [Example 214, 1-(4-{4-[7-amino-2-(1-methyl-1H-indazol-4-yl)furo[2,3-c]pyridin-4-yl]-1H-pyrazol-1-yl}piperidin-1-yl)ethanone]: 6.00 to 7.00.

For the molecule `CC(=O)N1CCC(n2cc(-c3cnc(N)c4oc(-c5ccc(CC#N)cc5)cc34)cn2)CC1` [Example 179, (4-{4-[1-(1-acetylpiperidin-4-yl)-1H-pyrazol-4-yl]-7-aminofuro[2,3-c]pyridin-2-yl}phenyl)acetonitrile], the pIC50 is 5.00 to 6.00. With `Cc1nc(C)c(-c2cnc(N)c3oc(-c4csc5cnccc45)cc23)s1` [Example 394, 4-(2,4-dimethyl-thiazol-5-yl)-2-thieno[2,3-c]pyridin-3-yl-furo[2,3-c]pyridin-7-ylamine], the negative logarithm of the IC50 (pIC50) is 5.00 to 6.00.

As for `CC(=O)N1CCC(n2cc(-c3cnc(N)c4oc(-c5cccc(C(F)(F)F)c5)cc34)cn2)CC1` [Example 185, 1-[4-(4-{7-amino-2-[3-(trifluoromethyl)phenyl]furo[2,3-c]pyridin-4-yl}-1H-pyrazol-1-yl)piperidin-1-yl]ethanone], the pIC50 was 5.00 to 6.00.

Regarding `Nc1ncc(-c2cnn(CCO)c2)c2cc(-c3csc4cnccc34)oc12` [Example 319, 2-[4-(7-amino-2-thieno[2,3-d]pyridin-3-yl-furo[2,3-d]pyridin-4-yl)-pyrazol-1-yl]-ethanol], the pIC50 was 6.00 to 7.00. Still for that read-out and setting: for `Nc1ncc(-c2cscn2)c2cc(-c3csc4cnccc34)oc12` [Example 396, 4-thiazol-4-yl-2-thieno[2,3-c]pyridin-3-yl-furo[2,3-c]pyridin-7-ylamine] the value was 5.00 to 6.00. On to `CC(=O)N1CCC(n2cc(-c3cnc(N)c4oc(-c5ccc(Cl)c(C(=O)O)c5)cc34)cn2)CC1` [Example 110, 5-{4-[1-(1-acetylpiperidin-4-yl)-1H-pyrazol-4-yl]-7-aminofuro[2,3-c]pyridin-2-yl}-2-chlorobenzoic acid hydrochloride], for which the pIC50 was 5.00 to 6.00. As to `CC(=O)N1CCC(n2cc(-c3cnc(N)c4oc(-c5ccc6c(c5)OCCO6)cc34)cn2)CC1` [Example 157, 1-(4-{4-[7-amino-2-(2,3-dihydro-1,4-benzodioxin-6-yl)furo[2,3-c]pyridin-4-yl]-1H-pyrazol-1-yl}piperidin-1-yl)ethanone], the pIC50 is 6.00 to 7.00. As to `Nc1ncc(-c2cnn(C3CCNCC3)c2)c2cc(C3=CCNCC3)oc12` [Example 49, 4-[1-(piperidin-4-yl)-1H-pyrazol-4-yl]-2-(1,2,3,6-tetrahydropyridin-4-yl)furo[2,3-c]pyridin-7-amine dihydrochloride], the pIC50 was 5.00 to 6.00.

Consider `CC(=O)N1CCC(n2cc(-c3cnc(N)c4oc(-c5ccc6c(c5)NC(=O)C6)cc34)cn2)CC1` [Example 144, 6-{4-[1-(1-acetylpiperidin-4-yl)-1H-pyrazol-4-yl]-7-aminofuro[2,3-c]pyridin-2-yl}-1,3-dihydro-2H-indol-2-one], for which the pIC50 is 5.00 to 6.00. For `Nc1ncc(-c2cnn([C@H]3CC[C@H](O)CC3)c2)c2cc(-c3cc(C(F)(F)F)cc(C(F)(F)F)c3)oc12` [Example 401, trans-4-(4-{7-amino-2-[3,5-bis(trifluoromethyl)phenyl]furo[2,3-d]pyridin-4-yl}-1H-pyrazol-1-yl)cyclohexanol], the pIC50 was less than 5.00. For `Cc1c(-c2ccccc2)oc2c(N)ncc(-c3cnn(C4CCNCC4)c3)c12` [Example 9, methyl-2-phenyl-4-[1-(piperidin-4-yl)-1H-pyrazol-4-yl]furo[2,3-c]pyridin-7-amine hydrochloride], the pIC50 is 5.00 to 6.00. Regarding `CN(C)S(=O)(=O)Nc1cccc(-c2cc3c(-c4cnn(C5CCNCC5)c4)cnc(N)c3o2)c1` [Example 24, N′-(3-{7-amino-4-[1-(piperidin-4-yl)-1H-pyrazol-4-yl]furo[2,3-c]pyridine-2-yl}phenyl)-N,N-dimethylsulfuric diamide], the pIC50 is 5.00 to 6.00.

For `CC(=O)N1CCC(n2cc(-c3cnc(N)c4oc(-c5ccc6cc[nH]c6c5)cc34)cn2)CC1` [Example 167, 1-(4-{4-[7-amino-2-(1H-indol-6-yl)furo[2,3-c]pyridin-4-yl}-1H-pyrazol-1-yl}piperidin-1-yl)ethanone], the pIC50 was 5.00 to 6.00. Still for that read-out and setting: the same measure for `COC(=O)c1cc(-c2cnc(N)c3oc(-c4csc5cnccc45)cc23)cs1` [Example 378, 4-(7-amino-2-thieno[2,3-c]pyridin-3-yl-furo[2,3-c]pyridin-4-yl)-thiophene-2-carboxylic acid methyl ester]: less than 5.00. For `COC(=O)c1cc(-c2cnc(N)c3oc(-c4csc5cnccc45)cc23)cn1C` [Example 398, 4-(7-amino-2-thieno[2,3-c]pyridin-3-yl-furo[2,3-c]pyridin-4-yl)-1-methyl-1H-pyrrole-2-carboxylic acid methyl ester], the pIC50 is 5.00 to 6.00. Same read-out and setting: for `CC(=O)N1CCC(n2cc(-c3cnc(N)c4oc(-c5cccc6ccoc56)cc34)cn2)CC1` [Example 196, 1-(4-{4-[7-amino-2-(1-benzofuran-7-yl)furo[2,3-c]pyridin-4-yl]-1H-pyrazol-1-yl}piperidin-1-yl)ethanone] the value was less than 5.00; for `Nc1ncc(-c2cnn(C3CCNCC3)c2)c2cc(-c3cccc4nn[nH]c34)oc12` [Example 46, 2-(1H-benzotriazol-7-yl)-4-[1-(piperidin-4-yl)-1H-pyrazol-4-yl]furo[2,3-c]pyridine-7-amine], 5.00 to 6.00; for `Nc1ncc(-c2cnn(C3CCNCC3)c2)c2cc(-c3cccc4cc[nH]c34)oc12` [Example 42, 2-(1H-indol-7-yl)-4-[1-(piperidin-4-yl)-1H-pyrazol-4-yl]furo[2,3-c]pyridin-7-amine], 6.00 to 7.00. For the molecule `COC(=O)c1cc2cc(-c3cc4c(-c5cnn(C6CCNCC6)c5)cnc(N)c4o3)ccc2s1` [Example 47, methyl 5-{7-amino-4-[1-(piperidin-4-yl)-1H-pyrazol-4-yl]furo[2,3-c]pyridine-2-yl}-1-benzothiophene-2-carboxylate], the negative logarithm of the IC50 (pIC50) is 5.00 to 6.00. On the same count and under the same terms, for `CC(=O)N1CCC(n2cc(-c3cnc(N)c4oc(-c5cccc(OCc6ccccn6)c5)cc34)cn2)CC1` [Example 199, 1-[4-(4-{7-amino-2-[3-(Pyridin-2-ylmethoxy)phenyl]furo[2,3-c]pyridin-4-yl}-1H-pyrazol-1-yl)piperidin-1-yl]ethanone] the value was 5.00 to 6.00. Same read-out and setting: for `COc1cccc2cc(C=CC(=O)N3CCC(n4cc(-c5cnc(N)c6oc(-c7csc8cnccc78)cc56)cn4)CC3)oc12` [Example 333, 1-{4-[4-(7-amino-2-thieno[2,3-c]pyridin-3-yl-furo[2,3-c]pyridin-4-yl)-pyrazol-1-yl]-piperidin-1-yl}-3-(7-methoxy-benzo-furan-2-yl)-propenone] the value was 6.00 to 7.00; for `CC(=O)N1CCC(n2cc(-c3cnc(N)c4oc(-c5ccc(CO)cc5)cc34)cn2)CC1` [Example 184, 1-[4-(4-{7-amino-2-[4-(hydroxymethyl)phenyl]furo[2,3-c]pyridin-4-yl}-1H-pyrazol-1-yl)piperidin-1-yl]ethanone], 5.00 to 6.00; for `Nc1ncc(-c2cnn(CC(=O)O)c2)c2cc(-c3csc4cnccc34)oc12` [Example 296, [4-(7-amino-2-thieno[2,3-c]pyridin-3-yl-furo[2,3-c]pyridin-4-yl)-pyrazol-1-yl]-acetic acid], 6.00 to 7.00.
